Holding throughout (assay type): biochemical
The target in assay [1] is T1, AKR1C3 (Homo sapiens, UniProt P42330).
T1 construct: GST (own knowledge: pGEX vectors encode N-terminal GST); made in house; host or cells: E. coli BL21 DE3 Codon Plus RP, lysate
T1 sequence (P42330 1-323): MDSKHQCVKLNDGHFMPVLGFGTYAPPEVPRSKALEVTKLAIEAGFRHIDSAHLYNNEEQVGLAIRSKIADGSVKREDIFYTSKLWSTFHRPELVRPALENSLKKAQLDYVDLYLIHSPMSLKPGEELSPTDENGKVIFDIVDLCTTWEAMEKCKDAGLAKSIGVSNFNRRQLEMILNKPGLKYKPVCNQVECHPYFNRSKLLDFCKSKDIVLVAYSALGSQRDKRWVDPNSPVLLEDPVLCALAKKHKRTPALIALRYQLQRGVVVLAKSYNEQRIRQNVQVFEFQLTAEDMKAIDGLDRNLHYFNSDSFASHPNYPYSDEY
The assay can be described thus: AKR1C3 enzymatic inhibition assay (∆4-androstene-3,17-dione to testosterone). The settings on record: for IC50: one-site ligand binding fit. From the text: (§1) For enzymatic assays and inhibitor testing, all enzymes were cloned into bacterial or mammalian expression vectors. AKR1C3 and the human hydroxysteroid dehydrogenases HSD17B1, HSD17B2, HSD17B4 (SDR domain), HSD17B7, and HSD17B10 were cloned into a pGEX vector as described in [71, 72]. The coding sequences for AKR1C1, AKR1C2, and AKR1C4 were cloned by Gateway technology into the pcDNA3-N-MycDest vector according to the manufacturer’s instructions (Life Technologies, Carlsbad, CA, USA). The p11 plasmid coding for HSD17B14 (S205 variant) was a gift from Udo Opperman SGC Oxford, UK. For assays with HSD17B3, HEK293 cells stably expressing HSD17B3 were used. Enzymes were expressed in E. coli BL21 DE3 or E. coli BL21 DE3 Codon Plus RP (Stratagene, San Diego, CA, USA) or in HEK293 cells as described in [71, 72, 73]. Bacterial and cell pellets were stored at −20 °C and −80 °C, respectively, until use.
(§2) Inhibition assays were carried out as described in [71, 74]. […] For a detailed assay setup, see Supplementary Table S6. The incubation at 37 °C was stopped with 0.21 M ascorbic acid in methanol:acetic acid 99:1 (v:v) after the time needed to convert approximately 30% of the substrate in a control assay with 1% DMSO, without inhibitor candidate. Substrates and products were extracted from the reaction mixture by solid-phase extraction using C18 cartridges (Phenomenex, Aschaffenburg, Germany) and separated by RP–HPLC in a Beckman–Coulter HPLC Gold system, using the Luna 5 µm C18(2), 125 × 4.0 mm column (Phenomenex). The mobile phases used were H2O:ACN (57:43 (v:v); for assays of estrone (E1) to oestradiol (E2), E2 to E1, and ∆4-androstene-3,17-dione to testosterone conversion), H2O:ACN (49:51 (v:v); for assays of progesterone to 20α-hydroxyprogesterone conversion), and H2O:MeOH (35:65 (v:v) for assays of dihydrotestosterone (DHT) to 3α-androstanediol conversion) at a flow rate of 1 mL/min. Radioactivity was detected by online scintillation counting by using a radioactivity monitor (LB506D, Berthold Technologies, Bad Wildbad, Germany). Conversion of substrates to products was determined by integration of the peak area of the substrate and product peaks in percent. For calculation of inhibition, the conversion of control assay (assay without inhibitor) was set to 0% inhibition. All assays were run in triplicates, and mean values ± SD are reported.
For the determination of IC50 values, percent inhibition values were fitted using the Enzyme Kinetics module of SigmaPlot 13.0 and the one-site ligand-binding model according to the formula f = Bmax * abs(x)/(Kd + abs(x)).
(§3) Table S6: Activity assay setup […]
(§4) E1: estrone; E2: 17β-estradiol, A: Δ4-androstene-3,17-dione; T: testosterone, P: progesterone, 20αOHP: 20α-hydroxyprogesterone, DHT: dihydrotestosterone, 3α-Adiol: 3α-androstanediol, NaPi: 100 mM Na-phosphate buffer; PI: C0mplete protease inhibitor (Roche);. E.coli - Expression in E.coli BL21 DE3 Codon Plus RP except E.coli BL21 DE3 […]
(§5) application to antiparasitic and natural product synthesis. Eur J Org Chem […]
(§6) Synthesis of Xanthohumol analogues and discovery of potent thioredoxin reductase inhibitor as potential anticancer agent. J Med Chem 2015, 58,

The target in assay [2] is T2, HSD17B4 (Homo sapiens, UniProt P51659).
T2 construct: pGEX-HSD17B4 (SDR domain) in; GST (own knowledge: pGEX vectors encode N-terminal GST); made in house; host or cells: E. coli BL21 DE3 Codon Plus RP
T2 sequence (P51659 1-305 limits assumed): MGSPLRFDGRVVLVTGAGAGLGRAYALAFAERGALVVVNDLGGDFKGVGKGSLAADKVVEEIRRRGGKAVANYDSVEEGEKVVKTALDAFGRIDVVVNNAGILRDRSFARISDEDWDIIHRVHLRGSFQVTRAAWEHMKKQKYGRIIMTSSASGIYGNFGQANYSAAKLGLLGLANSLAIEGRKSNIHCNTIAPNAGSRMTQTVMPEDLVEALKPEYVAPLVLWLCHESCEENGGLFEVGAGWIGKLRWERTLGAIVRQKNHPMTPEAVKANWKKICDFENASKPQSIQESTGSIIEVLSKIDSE
The assay can be described thus: HSD17B4 (SDR domain) inhibition assay (oestradiol to estrone). Conditions: 10 µM compound; mean ± SD.
Excerpt: as §1, §2, §3
pGEX-HSD17B4 (SDR domain) in E2 à E1 estradiol-[6,7-3H], 40 NAD 750 µM NaPi pH7.7 […]
as §4, §5, §6

Assay [3] deals with T3, HSD17B14 (Homo sapiens, UniProt Q9BPX1, T205S).
T3 construct: His6 (own knowledge: the SGC p11 vector encodes an N-terminal His tag with TEV site); made in house; host or cells: E. coli BL21 DE3
T3 sequence (Q9BPX1 1-270 T205S): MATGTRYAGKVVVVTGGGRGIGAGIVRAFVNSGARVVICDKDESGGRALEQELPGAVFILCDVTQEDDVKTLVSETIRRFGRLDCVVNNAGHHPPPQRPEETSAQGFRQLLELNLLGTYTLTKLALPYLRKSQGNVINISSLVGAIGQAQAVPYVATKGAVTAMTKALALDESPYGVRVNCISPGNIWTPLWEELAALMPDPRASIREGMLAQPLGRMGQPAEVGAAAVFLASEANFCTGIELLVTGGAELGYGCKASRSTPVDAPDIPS
The assay can be described thus: HSD17B14 (S205 variant) inhibition assay (oestradiol to estrone). Conditions: 10 µM compound; mean ± SD.
Excerpt: as §1, §2, §3, §4, §5, §6

Where [4] appears, read: 10 µM compound, ∆4-androstene-3,17-dione reduction, triplicates, mean ± SD, 10 µM.
[5] abbreviates: ∆4-androstene-3,17-dione reduction, mean ± SD.
The mark [6] stands for this setting: 10 µM compound, ∆4-androstene-3,17-dione reduction, triplicates, mean ± SD.

Several values for one entry are separate records, joined by “and”; a condition that tells them apart may be missing. Equal entries are not always repeated.

The IC50 is the midpoint of a concentration-inhibition curve. High values mean a need for much substance, low ones inhibition by little substance. Regarding `COc1ccc(/C=C/C(=O)c2c(O)cc(O)cc2OC)cc1` [Compound 18], in assay [1] (setting [4]), the “AKR1C3 Inhibition at 10 µM [%]” value is listed as 47.3 ± 6.4%. Further, in assay [1] (setting [5]), the IC50 worked out at 11900 ± 2030 nM. For the same molecule, the “Inhibition of HSD17B4 at 10 µM in %” value in assay [2] is listed as 9.9 ± 6.1%. In addition, in assay [3], the “Inhibition of HSD17B14 at 10 µM in %” value is given as 24.9 ± 8.1%.
As to `COc1ccc(/C=C/C(=O)c2c(O)cc(O)cc2O)cc1` [Compound 19], the “AKR1C3 Inhibition at 10 µM [%]” value in assay [1] (setting [4]) is > 75% and 78.1 ± 2.7%. For the same molecule, the IC50 in assay [1] (setting [5]) was determined as 2360 ± 540 nM. In assay [2], the “Inhibition of HSD17B4 at 10 µM in %” value was 2.0 ± 2.9%. In addition, the “Inhibition of HSD17B14 at 10 µM in %” value in assay [3] is reported as 1.8 ± 7.7%.
With `Cc1cccc(/C=C/C(=O)c2c(O)cc(O)cc2O)c1` [Compound 20], the “AKR1C3 Inhibition at 10 µM [%]” value in assay [1] (setting [4]) is > 75% and 89.2 ± 6.3%. Moreover, the IC50 in assay [1] (setting [5]) was found to be 1940 ± 320 nM. The “Inhibition of HSD17B4 at 10 µM in %” value in assay [2] stood at 8.6 ± 1.1%. For the same molecule, in assay [3], the “Inhibition of HSD17B14 at 10 µM in %” value was found to be 18.5 ± 9.3%.
Consider `Cc1ccc(/C=C/C(=O)c2c(O)cc(O)cc2O)cc1` [Compound 21], for which the “AKR1C3 Inhibition at 10 µM [%]” value in assay [1] (setting [4]) is > 75% and 87.9 ± 4.9%. Besides, in assay [1] (setting [5]), the IC50 was 5180 ± 1640 nM. Moreover, the “Inhibition of HSD17B4 at 10 µM in %” value in assay [2] is on record as 3.0 ± 6.3%. The “Inhibition of HSD17B14 at 10 µM in %” value in assay [3] is on record as -8.0 ± 2.3%.
Broadly, the inhibition is the percentage by which the read-out fell short of the control. A high value points to a strong effect. Regarding `O=C(/C=C/c1ccc(Cl)cc1Cl)c1c(O)cc(O)cc1O` [Compound 23, 2,4-dichloro-2′,4′,6′-trihydroxychalcone], the inhibition at 10 µM in assay [1] (setting [6]) amounted to 90.9 ± 4.6%; in assay [2], 19.6 ± 1%; in assay [3], 13.9 ± 2.7%. Also, in assay [1] (compared with chalcone 18), the “Fold more active than natural chalcone 18 (AKR1C3)” value was 10 fold. This molecule also registered an IC50 in assay [1] (setting [5]) of 1080 ± 270 nM.
On to `COc1cc(O)cc(O)c1C(=O)/C=C/c1ccc(Cl)cc1Cl` [Compound 25], for which the “AKR1C3 Inhibition at 10 µM [%]” value in assay [1] (setting [6]) is listed as 33.3 ± 6.0%. In addition, the “Inhibition of HSD17B4 at 10 µM in %” value in assay [2] was -6.0 ± 7.5%. In addition, in assay [3], the “Inhibition of HSD17B14 at 10 µM in %” value is recorded as -3.2 ± 6.3%.

The record behind these values is paper PMC8876231, “Analogues of Natural Chalcones as Efficient Inhibitors of AKR1C3” (Metabolites, 2022).
